Converted amounts (≈) assume the structure as drawn.
How the values were obtained:
Pseudomonas aeruginosa [1] = assay: Antibacterial activity against Pseudomonas aeruginosa PAO397 [PAO1 d(mexAB-oprM) d(mexCD-oprJ) d(mexEF-oprN) d(mexJKL) d(mexXY) d(opmH)] (CO-ADD:GN_211); MIC in CAMBH media using NBS plates, by OD(600); type: functional; conditions: ASSAY_TEST Inhibition of Bacterial Growth, detection method Absorption (OD600), MEDIA CAMHB, plate type 384well, CORNING #3640, time 18 hr
Escherichia coli = conditions: ASSAY_TEST Inhibition of Bacterial Growth; detection method Absorption (OD600); MEDIA CAMHB; plate type 384well; NBS; CORNING #3640; time 18 hr
Description: Antibacterial activity against Escherichia coli ATCC 25922 (CO-ADD:GN_001); MIC in CAMBH media using NBS plates, by OD(600)

Staphylococcus aureus = conditions: ASSAY_TEST Inhibition of Bacterial Growth; detection method Absorption (OD600); MEDIA CAMHB; plate type 384well; NBS; CORNING #3640; time 18 hr
Description: Antibacterial activity against Staphylococcus aureus MRSA ATCC 43300 (CO-ADD:GP_020); MIC in CAMBH media, using NBS plates, by OD(600)

Pseudomonas aeruginosa [2] = conditions: ASSAY_TEST Inhibition of Bacterial Growth; detection method Absorption (OD600); MEDIA CAMHB; plate type 384well; NBS; CORNING #3640; time 18 hr
Description: Antibacterial activity against Pseudomonas aeruginosa ATCC 27853 (CO-ADD:GN_042); MIC in CAMBH media using NBS plates, by OD(600)

Klebsiella pneumoniae = conditions: ASSAY_TEST Inhibition of Bacterial Growth; detection method Absorption (OD600); MEDIA CAMHB; plate type 384well; NBS; CORNING #3640; time 18 hr
Description: Antibacterial activity against Klebsiella pneumoniae MDR ATCC 70063 (CO-ADD:GN_003); MIC in CAMBH media using NBS plates, by OD(600)

Candida albicans = conditions: ASSAY_TEST Inhibition of Fungal Growth; detection method Absorption (OD530); plate type 384well; NBS; CORNING #3640
Description: Antifungal activity against Candida albicans ATCC 90028 (CO-ADD:FG_001); MIC in YNB media using NBS plates, by OD630

Acinetobacter baumannii = conditions: ASSAY_TEST Inhibition of Bacterial Growth; detection method Absorption (OD600); MEDIA CAMHB; plate type 384well; NBS; CORNING #3640; time 18 hr
Description: Antibacterial activity against Acinetobacter baumannii ATCC 19606 (CO-ADD:GN_034); MIC in CAMBH media using NBS plates, by OD600

HEK293 = assay: cells; type: functional, Homo sapiens, ATCC CRL1573
[3] = Homo sapiens, ATCC CRL1573, HEK293, ASSAY_TEST Inhibition of Cell Viability, detection method Resazurin, Fluorescence (ex560/em590), MEDIA DMEM with 10% FBS, plate type 384well, TC, CORNING #3712, time 18 hr, read-out: CC50
[4] = ASSAY_TEST Inhibition of Cell Viability, detection method Resazurin, Fluorescence (ex560/em590), MEDIA DMEM with 10% FBS, plate type 384well, TC, CORNING #3712, time 18 hr, read-out: CC50

Description for Cryptococcus neoformans: Antifungal activity against Cryptococcus neoformans H99 ATCC 208821 (CO-ADD:FG_002); MIC in YNB media using NBS plates, by Resazurin OD(600-570)

SMILES | MIC (Pseudomonas aeruginosa [1]) | MIC (Escherichia coli) | MIC (Cryptococcus neoformans) | MIC (Staphylococcus aureus) | MIC (Pseudomonas aeruginosa [2]) | MIC (Klebsiella pneumoniae) | MIC (Candida albicans) | MIC (Acinetobacter baumannii) | CC50 (HEK293; [3]) | CC50 (HEK293; Homo sapiens, ATCC CRL1573, HEK293, 18 h) | CC50 (HEK293; [4])
CC(=O)N1CCN(c2ccc(OCC3COC(Cn4ccnc4)(c4ccc(Cl)cc4Cl)O3)cc2)CC1 (centres undefined) [KETOCONAZOLE] | 20 µM (≈ 10.6 µg/mL) | >20 µM | 5 µM (≈ 2.66 µg/mL) | >20 µM | >20 µM | >20 µM | 0.3125 µM (≈ 0.166 µg/mL) | >20 µM | – | > 20 µM | –
C[C@H]1COc2c(N3CCN(C)CC3)c(F)cc3c(=O)c(C(=O)O)cn1c23.C[C@H]1COc2c(N3CCN(C)CC3)c(F)cc3c(=O)c(C(=O)O)cn1c23.O [LEVOFLOXACIN] | ≤ 0.156 µM | <=0.1562 uM | > 20 µM | 2.5 µM | 2.5 µM | 5 µM | >20 µM | 10 µM | – | – | > 20 µM
CC(=O)Oc1ccccc1C(=O)Nc1ncc([N+](=O)[O-])s1 [NITAZOXANIDE] | > 20 µM | >20 µM | > 20 µM | >20 µM | >20 µM | >20 µM | >20 µM | >20 µM | 8.59 µM | – | –

More lines, main results first:

MIC (Pseudomonas aeruginosa [1]) | MIC (Escherichia coli) | MIC (Cryptococcus neoformans) | MIC (Staphylococcus aureus) | MIC (Pseudomonas aeruginosa [2]) | MIC (Klebsiella pneumoniae) | MIC (Candida albicans) | MIC (Acinetobacter baumannii) | SMILES | CC50 (HEK293; [3]) | CC50 (HEK293; Homo sapiens, ATCC CRL1573, HEK293, 18 h) | CC50 (HEK293; [4])
> 20 µM | >20 µM | ≤ 0.156 µM | >20 µM | >20 µM | >20 µM | <=0.1562 uM | >20 µM | CCC(C)n1ncn(-c2ccc(N3CCN(c4ccc(OCC5COC(Cn6cncn6)(c6ccc(Cl)cc6Cl)O5)cc4)CC3)cc2)c1=O (centres undefined) [ITRACONAZOLE] | > 20 µM | – | –
20 µM (≈ 7.07 µg/mL) | >20 µM | > 20 µM | 5 µM (≈ 1.77 µg/mL) | >20 µM | >20 µM | >20 µM | >20 µM | CC(=O)NC[C@H]1CN(c2ccc(N3CCSCC3)c(F)c2)C(=O)O1 [SUTEZOLID] | – | – | > 20 µM
5 µM (≈ 1.45 µg/mL) | 2.5 µM (≈ 0.726 µg/mL) | > 20 µM | 5 µM (≈ 1.45 µg/mL) | 20 µM (≈ 5.81 µg/mL) | 5 µM (≈ 1.45 µg/mL) | >20 µM | >20 µM | COc1cc(Cc2cnc(N)nc2N)cc(OC)c1OC [TRIMETHOPRIM] | – | – | > 20 µM

— ChEMBL document CHEMBL4513161, “CO-ADD screening of MMV (CH) - Pandemic Response Box” (2021)
